This note sets out measurements from EP0672658B1, “Antithrombotic agents” (priority 1994, dated 1995).

Structures can show the parent of a compound that is named as a salt.
Throughout, for % oral/i.v. activity (Rat): key: NC^1 indicates screening not completed; low or very low activity obsrved at 20 mg/kg p.o; NC^2 indicates screening not completed; low or very low activity observed at 60 mg/kg p.o; NC^3 indicates screening not completed; low or very low activity observed at 50 mg/kg p.o.

Sequence of t-PA (P00750 36-562): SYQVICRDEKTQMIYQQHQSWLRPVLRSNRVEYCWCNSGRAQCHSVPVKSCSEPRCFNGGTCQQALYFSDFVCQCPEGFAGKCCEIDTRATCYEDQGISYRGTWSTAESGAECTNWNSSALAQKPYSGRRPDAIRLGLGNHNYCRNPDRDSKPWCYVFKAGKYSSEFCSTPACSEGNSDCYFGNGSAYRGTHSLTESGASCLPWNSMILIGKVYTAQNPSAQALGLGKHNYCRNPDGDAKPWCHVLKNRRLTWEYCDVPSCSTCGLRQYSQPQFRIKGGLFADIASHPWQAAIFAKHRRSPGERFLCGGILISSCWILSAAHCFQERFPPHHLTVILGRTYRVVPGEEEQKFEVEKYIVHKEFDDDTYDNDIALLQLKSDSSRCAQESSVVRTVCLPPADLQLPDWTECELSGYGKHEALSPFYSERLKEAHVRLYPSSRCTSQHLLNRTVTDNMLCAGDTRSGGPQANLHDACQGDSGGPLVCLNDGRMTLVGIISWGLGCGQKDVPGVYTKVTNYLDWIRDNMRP
Sequence of factor Xa (P00742 235-488 limits assumed): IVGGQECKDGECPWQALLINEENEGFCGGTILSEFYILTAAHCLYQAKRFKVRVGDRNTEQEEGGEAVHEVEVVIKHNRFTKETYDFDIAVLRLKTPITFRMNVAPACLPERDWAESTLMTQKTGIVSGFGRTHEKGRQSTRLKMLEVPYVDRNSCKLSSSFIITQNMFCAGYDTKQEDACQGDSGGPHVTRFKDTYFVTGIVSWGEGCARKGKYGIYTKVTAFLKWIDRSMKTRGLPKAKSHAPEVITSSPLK
Sequence of factor Xa (P00742 41-179 partner limits assumed): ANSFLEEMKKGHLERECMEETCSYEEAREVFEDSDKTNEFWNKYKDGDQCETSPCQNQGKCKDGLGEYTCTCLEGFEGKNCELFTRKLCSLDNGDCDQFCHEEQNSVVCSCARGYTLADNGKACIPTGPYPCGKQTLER

The first series deals with human or animal plasma. As to the kind of experiment: Anticoagulation determination in plasma: activated partial thromboplastin time (APTT). The series is classed as biochemical. Conditions: concentration doubling activated partial thromboplastin time. An outline of the steps: (§1)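 Compounds spiked over a concentration range into citrated human, dog or rat plasma. PT used Thromboplastin-C; APTT used Actin reagent 120 s then 0.02 M CaCl2; TT used bovine thrombin 10 NIH units/mL. Concentration doubling clotting time estimated by linear extrapolation.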
For `CCS(=O)(=O)N[C@H](Cc1ccccc1)C(=O)N1CCC[C@H]1C(=O)NCCc1ccc(C(=N)N)cc1` [Example 26, EtSO2-D-Phe-Pro-p-NHCH2CH2-C6H4C(=NH)NH2·HCl], the “Human Plasma Anticoagulation 2x Clotting time (ng/mL) APTT” value amounted to 870 ng/mL.

Regarding `N=C(N)c1ccc(CNC(=O)[C@@H]2CCCN2C(=O)[C@@H](CC2CCCCC2)NCC(=O)O)cc1` [Example 48, HOOCCH2-D-Cha-Pro-p-NHCH2C6H4C(NH)NH2·HCl], the “Human Plasma Anticoagulation 2x Clotting time (ng/mL) APTT” value was found to be 33 ng/mL.

Take `N=C(N)c1ccc(CNC(=O)[C@@H]2C[C@@H]3CCCC[C@@H]3N2C(=O)[C@@H](Cc2ccccc2)NCC(=O)O)cc1` [Example 47, HOOCCH2-D-Phe-cis-Ohi-p-NHCH2C6H4C(NH)NH2·HCl]: the “Human Plasma Anticoagulation 2x Clotting time (ng/mL) APTT” value was determined as 140 ng/mL.

A further series deals with Human Thrombin (Homo sapiens, UniProt P00734). As to the kind of experiment: biochemical. Conditions: read-out: Kass Human Thrombin (converted).
`CCS(=O)(=O)N[C@H](Cc1ccccc1)C(=O)N1CCC[C@H]1C(=O)NCCc1ccc(C(=N)N)cc1` [Example 26, EtSO2-D-Phe-Pro-p-NHCH2CH2-C6H4C(=NH)NH2·HCl]: the Kd was 0.0769 µM.

Regarding `N=C(N)c1ccc(CNC(=O)[C@@H]2CCCN2C(=O)[C@@H](CC2CCCCC2)NCC(=O)O)cc1` [Example 48, HOOCCH2-D-Cha-Pro-p-NHCH2C6H4C(NH)NH2·HCl], the Kd is 0.000244 µM.

Consider `N=C(N)c1ccc(CNC(=O)[C@@H]2C[C@@H]3CCCC[C@@H]3N2C(=O)[C@@H](Cc2ccccc2)NCC(=O)O)cc1` [Example 47, HOOCCH2-D-Phe-cis-Ohi-p-NHCH2C6H4C(NH)NH2·HCl], for which the Kd is 0.0222 µM.

The target of a further series is T1, Trypsin (Bos taurus, UniProt P00760).
T1 sequence (P00760 24-246): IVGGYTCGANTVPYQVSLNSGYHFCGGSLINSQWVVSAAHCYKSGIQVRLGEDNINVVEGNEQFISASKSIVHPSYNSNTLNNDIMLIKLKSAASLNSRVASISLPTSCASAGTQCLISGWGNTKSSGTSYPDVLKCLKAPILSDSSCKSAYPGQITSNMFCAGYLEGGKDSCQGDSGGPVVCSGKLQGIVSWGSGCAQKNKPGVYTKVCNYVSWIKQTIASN
As to the kind of experiment: biochemical. More on the design: species or system Bovine. The conditions noted are these: read-out: Kass Trypsin (converted). An outline of the steps: (§2)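 Bovine trypsin and human factor Xa amidase activity measured chromogenically, following the human thrombin procedure. Substrates: N-Benzoyl-Ile-Glu-Gly-Arg-p-nitroanilide for factor Xa and N-Benzoyl-Phe-Val-Arg-p-nitroanilide for trypsin. Used for selectivity profiling.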
For `CCS(=O)(=O)N[C@H](Cc1ccccc1)C(=O)N1CCC[C@H]1C(=O)NCCc1ccc(C(=N)N)cc1` [Example 26, EtSO2-D-Phe-Pro-p-NHCH2CH2-C6H4C(=NH)NH2·HCl], the Kd was 4.76 µM.

With `N=C(N)c1ccc(CNC(=O)[C@@H]2CCCN2C(=O)[C@@H](CC2CCCCC2)NCC(=O)O)cc1` [Example 48, HOOCCH2-D-Cha-Pro-p-NHCH2C6H4C(NH)NH2·HCl], the Kd was 0.004 µM.

For `N=C(N)c1ccc(CNC(=O)[C@@H]2C[C@@H]3CCCC[C@@H]3N2C(=O)[C@@H](Cc2ccccc2)NCC(=O)O)cc1` [Example 47, HOOCCH2-D-Phe-cis-Ohi-p-NHCH2C6H4C(NH)NH2·HCl], the Kd is 0.0122 µM.

The next series relates to human or animal plasma. As to the kind of experiment: Anticoagulation determination in plasma: thrombin time (TT). The series is classed as biochemical. The conditions noted are these: concentration doubling thrombin time. An outline of the steps:
as §1
Take `CCS(=O)(=O)N[C@H](Cc1ccccc1)C(=O)N1CCC[C@H]1C(=O)NCCc1ccc(C(=N)N)cc1` [Example 26, EtSO2-D-Phe-Pro-p-NHCH2CH2-C6H4C(=NH)NH2·HCl]: the “Human Plasma Anticoagulation 2x Clotting time (ng/mL) TT” value was 37 ng/mL.

As to `N=C(N)c1ccc(CNC(=O)[C@@H]2CCCN2C(=O)[C@@H](CC2CCCCC2)NCC(=O)O)cc1` [Example 48, HOOCCH2-D-Cha-Pro-p-NHCH2C6H4C(NH)NH2·HCl], the “Human Plasma Anticoagulation 2x Clotting time (ng/mL) TT” value is 2. ng/mL.

As for `N=C(N)c1ccc(CNC(=O)[C@@H]2C[C@@H]3CCCC[C@@H]3N2C(=O)[C@@H](Cc2ccccc2)NCC(=O)O)cc1` [Example 47, HOOCCH2-D-Phe-cis-Ohi-p-NHCH2C6H4C(NH)NH2·HCl], the “Human Plasma Anticoagulation 2x Clotting time (ng/mL) TT” value is 12. ng/mL.

In the next series the target is factor Xa (Homo sapiens, UniProt P00742). The series is described as follows: biochemical. Conditions: read-out: Kass Xa (converted). A digest of the protocol:
as §2
As for `CCS(=O)(=O)N[C@H](Cc1ccccc1)C(=O)N1CCC[C@H]1C(=O)NCCc1ccc(C(=N)N)cc1` [Example 26, EtSO2-D-Phe-Pro-p-NHCH2CH2-C6H4C(=NH)NH2·HCl], the Kd was 100 µM.

As to `N=C(N)c1ccc(CNC(=O)[C@@H]2CCCN2C(=O)[C@@H](CC2CCCCC2)NCC(=O)O)cc1` [Example 48, HOOCCH2-D-Cha-Pro-p-NHCH2C6H4C(NH)NH2·HCl], the Kd was 0.182 µM.

On to `N=C(N)c1ccc(CNC(=O)[C@@H]2C[C@@H]3CCCC[C@@H]3N2C(=O)[C@@H](Cc2ccccc2)NCC(=O)O)cc1` [Example 47, HOOCCH2-D-Phe-cis-Ohi-p-NHCH2C6H4C(NH)NH2·HCl], for which the Kd is 25 µM.

System in the next series: not listed separately
The series is described as follows: in vivo. Details: species or system rats. The conditions noted are these: screening not completed, activity after p.o. dose given in the legend. An excerpt: Each sample population represented alternating sequential time points.
`CCS(=O)(=O)N[C@H](Cc1ccccc1)C(=O)N1CCC[C@H]1C(=O)NCCc1ccc(C(=N)N)cc1` [Example 26, EtSO2-D-Phe-Pro-p-NHCH2CH2-C6H4C(=NH)NH2·HCl]: the “% oral/i.v. activity (Rat)” value is recorded as “NC^1”.

As to `N=C(N)c1ccc(CNC(=O)[C@@H]2C[C@@H]3CCCC[C@@H]3N2C(=O)[C@@H](Cc2ccccc2)NCC(=O)O)cc1` [Example 47, HOOCCH2-D-Phe-cis-Ohi-p-NHCH2C6H4C(NH)NH2·HCl], the “% oral/i.v. activity (Rat)” value is reported as “NC^2”.

System in a further series: not listed separately
As to the kind of experiment: Arterio-Venous shunt model. Type of series: in vivo, rats. The conditions noted are these: continuous intravenous infusion, both compounds to the same extent. The procedure: […]. Blood circulated through the shunt for 15 minutes before the thread is carefully removed and weighed. The weight of a wet thread is subtracted from the total weight of the thread and thrombus (see J.R. Smith, Br. J. Pharmacol., 77,29 (1982)).
On to `CN[C@H](Cc1ccccc1)C(=O)N1CCC[C@H]1C(=O)N[C@H](C=O)CCCNC(=N)N` [D-MePhe-Pro-Arg-H, reference compound], for which the thrombus weight entry is recorded as “approximately 20 % of control”.

In the case of `N=C(N)c1ccc(CNC(=O)[C@@H]2CCCN2C(=O)[C@@H](CC2CCCCC2)NCC(=O)O)cc1` [Example 48, HOOCCH2-D-Cha-Pro-p-NHCH2C6H4C(NH)NH2·HCl], the thrombus weight entry was “approximately 20 % of control”.

The series is the same for the next values; noted with them: continuous intravenous infusion; greater than D-MePhe-Pro-Arg-H.
In the case of `N=C(N)c1ccc(CNC(=O)[C@@H]2CCCN2C(=O)[C@@H](CC2CCCCC2)NCC(=O)O)cc1` [Example 48, HOOCCH2-D-Cha-Pro-p-NHCH2C6H4C(NH)NH2·HCl], the “antithrombotic potency compared with D-MePhe-Pro-Arg-H” value worked out at 9 fold.

In the next series the target is T2, Plasmin (Homo sapiens, UniProt P00747).
T2 construct: Human plasmin is purchased; purchased Boehringer Mannheim, Indianapolis, Indiana
T2 sequence (P00747 581-810 limits assumed): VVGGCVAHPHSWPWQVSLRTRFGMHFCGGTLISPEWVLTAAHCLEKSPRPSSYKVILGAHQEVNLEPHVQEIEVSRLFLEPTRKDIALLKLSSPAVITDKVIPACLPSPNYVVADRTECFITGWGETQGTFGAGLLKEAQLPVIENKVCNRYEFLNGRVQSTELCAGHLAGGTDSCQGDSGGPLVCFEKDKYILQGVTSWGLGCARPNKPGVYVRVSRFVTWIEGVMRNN
T2 sequence (P00747 97-580 partner limits assumed): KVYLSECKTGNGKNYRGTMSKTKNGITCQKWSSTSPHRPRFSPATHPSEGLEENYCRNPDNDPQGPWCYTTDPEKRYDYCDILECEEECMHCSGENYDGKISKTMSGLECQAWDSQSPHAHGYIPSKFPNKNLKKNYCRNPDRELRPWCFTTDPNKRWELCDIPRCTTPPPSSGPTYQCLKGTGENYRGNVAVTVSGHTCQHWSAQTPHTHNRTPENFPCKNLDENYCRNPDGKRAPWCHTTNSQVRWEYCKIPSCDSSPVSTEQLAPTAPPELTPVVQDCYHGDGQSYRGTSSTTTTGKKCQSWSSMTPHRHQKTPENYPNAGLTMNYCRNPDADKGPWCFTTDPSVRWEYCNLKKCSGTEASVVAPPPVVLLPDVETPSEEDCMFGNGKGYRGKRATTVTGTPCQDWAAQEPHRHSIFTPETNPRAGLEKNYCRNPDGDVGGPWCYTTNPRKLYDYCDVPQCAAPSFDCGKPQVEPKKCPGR
The series is described as follows: biochemical. The conditions noted are these: read-out: Kass Plasmin (converted). A digest of the protocol:
(§3)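 Amidase activity of human plasmin and t-PA (nt-PA single-chain; mt-PA6) was measured by a chromogenic method adapted from a thrombin assay. Substrates were H-D-Val-Leu-Lys-p-nitroanilide for plasmin and H-D-Ile-Pro-Arg-p-nitroanilide for t-PA.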
As to `CCS(=O)(=O)N[C@H](Cc1ccccc1)C(=O)N1CCC[C@H]1C(=O)NCCc1ccc(C(=N)N)cc1` [Example 26, EtSO2-D-Phe-Pro-p-NHCH2CH2-C6H4C(=NH)NH2·HCl], the Kd was 100 µM.

`N=C(N)c1ccc(CNC(=O)[C@@H]2CCCN2C(=O)[C@@H](CC2CCCCC2)NCC(=O)O)cc1` [Example 48, HOOCCH2-D-Cha-Pro-p-NHCH2C6H4C(NH)NH2·HCl]: the Kd is 2.33 µM.

Take `N=C(N)c1ccc(CNC(=O)[C@@H]2C[C@@H]3CCCC[C@@H]3N2C(=O)[C@@H](Cc2ccccc2)NCC(=O)O)cc1` [Example 47, HOOCCH2-D-Phe-cis-Ohi-p-NHCH2C6H4C(NH)NH2·HCl]: the Kd was 5.56 µM.

A further series addresses t-PA (Homo sapiens, UniProt P00750). The series is described as follows: biochemical. The conditions noted are these: read-out: Kass t-PA (converted). A digest of the protocol:
as §3
As to `CCS(=O)(=O)N[C@H](Cc1ccccc1)C(=O)N1CCC[C@H]1C(=O)NCCc1ccc(C(=N)N)cc1` [Example 26, EtSO2-D-Phe-Pro-p-NHCH2CH2-C6H4C(=NH)NH2·HCl], the Kd is 100 µM.

With `N=C(N)c1ccc(CNC(=O)[C@@H]2CCCN2C(=O)[C@@H](CC2CCCCC2)NCC(=O)O)cc1` [Example 48, HOOCCH2-D-Cha-Pro-p-NHCH2C6H4C(NH)NH2·HCl], the Kd was 20 µM.

Turning to `N=C(N)c1ccc(CNC(=O)[C@@H]2C[C@@H]3CCCC[C@@H]3N2C(=O)[C@@H](Cc2ccccc2)NCC(=O)O)cc1` [Example 47, HOOCCH2-D-Phe-cis-Ohi-p-NHCH2C6H4C(NH)NH2·HCl], the Kd is 100 µM.

System in another series: not listed separately
As to the kind of experiment: Coagulation parameters in plasma of treated rats (TT, APTT, prothrombin time). Type of series: in vivo, rat. The conditions noted are these: during infusion in the Arterio-Venous shunt model.
Method: Plasma thrombin time (TT) and activated partial thromboplastin time (APTT) are measured with a fibrometer. Blood is sampled from a jugular catheter and collected in syringe containing sodium citrate (3.8%, 1 part to 9 parts blood). To measure TT, rat plasma (0.1 mL) is mixed with saline (0.1 mL) and bovine thrombin (0.1 mL, 30 U/mL in TRIS buffer; Parke Davis) at 37 °C. For APTT, plasma (0.1 mL) and APTT solution (0.1 mL, Organon Teknika) are incubated for 5 minutes (37 °C) and CaCl2 (0.01 mL, 0.025 M) is added to start coagulation. Assays are done in duplicate and averaged.
Regarding `N=C(N)c1ccc(CNC(=O)[C@@H]2CCCN2C(=O)[C@@H](CC2CCCCC2)NCC(=O)O)cc1` [Example 48, HOOCCH2-D-Cha-Pro-p-NHCH2C6H4C(NH)NH2·HCl], the APTT extended entry is given as “about 120 % of control” and the Prothrombin time extended result was “about 120 % of control”.

The series is the same for the next values; noted with them: during infusion reducing thrombus weight to approximately 20% of control in the Arterio-Venous shunt model.
Consider `CN[C@H](Cc1ccccc1)C(=O)N1CCC[C@H]1C(=O)N[C@H](C=O)CCCNC(=N)N` [D-MePhe-Pro-Arg-H, reference compound], for which the “plasma thrombin time prolonged” value is listed as “greater than 20 fold”.

Consider `N=C(N)c1ccc(CNC(=O)[C@@H]2CCCN2C(=O)[C@@H](CC2CCCCC2)NCC(=O)O)cc1` [Example 48, HOOCCH2-D-Cha-Pro-p-NHCH2C6H4C(NH)NH2·HCl], for which the “plasma thrombin time prolonged” value is “about 3 fold”.

The next series relates to human or animal plasma. As to the kind of experiment: Anticoagulation determination in plasma: prothrombin time (PT). The conditions noted are these: concentration doubling prothrombin time. Type of series: biochemical. A digest of the protocol: as §1
On to `CCS(=O)(=O)N[C@H](Cc1ccccc1)C(=O)N1CCC[C@H]1C(=O)NCCc1ccc(C(=N)N)cc1` [Example 26, EtSO2-D-Phe-Pro-p-NHCH2CH2-C6H4C(=NH)NH2·HCl], for which the “Human Plasma Anticoagulation 2x Clotting time (ng/mL) PT” value was determined as 750 ng/mL.

On to `N=C(N)c1ccc(CNC(=O)[C@@H]2CCCN2C(=O)[C@@H](CC2CCCCC2)NCC(=O)O)cc1` [Example 48, HOOCCH2-D-Cha-Pro-p-NHCH2C6H4C(NH)NH2·HCl], for which the “Human Plasma Anticoagulation 2x Clotting time (ng/mL) PT” value is on record as 59 ng/mL.

For `N=C(N)c1ccc(CNC(=O)[C@@H]2C[C@@H]3CCCC[C@@H]3N2C(=O)[C@@H](Cc2ccccc2)NCC(=O)O)cc1` [Example 47, HOOCCH2-D-Phe-cis-Ohi-p-NHCH2C6H4C(NH)NH2·HCl], the “Human Plasma Anticoagulation 2x Clotting time (ng/mL) PT” value is recorded as 270 ng/mL.
